According to US8158636B2, “Compounds and methods for kinase modulation, and indications therefor” (Plexxikon Inc., priority 2008, dated 2012):

Columns and labels:
Format in all cases: biochemical
B-Raf V600E = B-Raf V600E (Homo sapiens, UniProt P15056, V600E); assay: Kinase activity assay, B-Raf V600E; details: Table 1c; read-out: activity toward kinase B-Raf V600E, IC50
From the text: (§1) Assays for the activity of kinases, including, but not limited to, Fms, Kit, B-Raf, B-Raf V600E, c-Raf-1, and TrkA are known in the art, for example as described in US Patent Publication Number US20070032519 and U.S. patent application Ser. No. 11/473,347 (see also, PCT publication WO2007002433), the disclosures of which are hereby incorporated by reference with respect to such assays.

Fms = Fms (Homo sapiens, UniProt P07333); assay: Kinase activity assay, Fms; details: Table 1h; read-out: activity toward kinase Fms, IC50
Fms, sequence (P07333 20-972): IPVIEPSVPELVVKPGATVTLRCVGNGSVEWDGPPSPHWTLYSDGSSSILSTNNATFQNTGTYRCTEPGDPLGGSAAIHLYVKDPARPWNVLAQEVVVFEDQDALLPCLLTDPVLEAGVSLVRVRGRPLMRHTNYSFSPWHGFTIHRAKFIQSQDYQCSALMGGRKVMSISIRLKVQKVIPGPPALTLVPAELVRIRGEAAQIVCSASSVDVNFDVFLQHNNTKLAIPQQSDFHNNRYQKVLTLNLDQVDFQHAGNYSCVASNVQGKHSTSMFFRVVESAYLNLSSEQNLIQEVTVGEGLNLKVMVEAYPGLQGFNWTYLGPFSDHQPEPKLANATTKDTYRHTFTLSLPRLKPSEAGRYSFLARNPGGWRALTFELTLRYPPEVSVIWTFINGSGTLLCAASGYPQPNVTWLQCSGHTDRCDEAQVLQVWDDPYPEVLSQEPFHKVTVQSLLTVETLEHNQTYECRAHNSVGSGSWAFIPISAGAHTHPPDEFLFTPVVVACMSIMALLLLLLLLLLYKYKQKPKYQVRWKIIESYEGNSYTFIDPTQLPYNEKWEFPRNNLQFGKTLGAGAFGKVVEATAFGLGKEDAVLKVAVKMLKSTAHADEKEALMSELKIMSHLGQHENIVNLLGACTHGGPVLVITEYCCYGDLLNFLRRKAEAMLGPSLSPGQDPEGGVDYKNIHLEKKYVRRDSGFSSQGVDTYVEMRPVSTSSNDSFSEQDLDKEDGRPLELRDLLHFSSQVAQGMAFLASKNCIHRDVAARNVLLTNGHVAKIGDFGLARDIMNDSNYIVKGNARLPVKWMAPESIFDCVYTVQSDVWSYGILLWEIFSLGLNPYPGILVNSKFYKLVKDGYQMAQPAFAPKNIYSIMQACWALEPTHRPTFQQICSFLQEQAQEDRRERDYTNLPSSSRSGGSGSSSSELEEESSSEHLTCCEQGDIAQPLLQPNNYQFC
From the text: as §1

Kit = Kit (Homo sapiens, UniProt P10721); assay: Kinase activity assay, Kit; details: Table 1j; read-out: activity toward kinase Kit, IC50
Kit, sequence (P10721 26-976): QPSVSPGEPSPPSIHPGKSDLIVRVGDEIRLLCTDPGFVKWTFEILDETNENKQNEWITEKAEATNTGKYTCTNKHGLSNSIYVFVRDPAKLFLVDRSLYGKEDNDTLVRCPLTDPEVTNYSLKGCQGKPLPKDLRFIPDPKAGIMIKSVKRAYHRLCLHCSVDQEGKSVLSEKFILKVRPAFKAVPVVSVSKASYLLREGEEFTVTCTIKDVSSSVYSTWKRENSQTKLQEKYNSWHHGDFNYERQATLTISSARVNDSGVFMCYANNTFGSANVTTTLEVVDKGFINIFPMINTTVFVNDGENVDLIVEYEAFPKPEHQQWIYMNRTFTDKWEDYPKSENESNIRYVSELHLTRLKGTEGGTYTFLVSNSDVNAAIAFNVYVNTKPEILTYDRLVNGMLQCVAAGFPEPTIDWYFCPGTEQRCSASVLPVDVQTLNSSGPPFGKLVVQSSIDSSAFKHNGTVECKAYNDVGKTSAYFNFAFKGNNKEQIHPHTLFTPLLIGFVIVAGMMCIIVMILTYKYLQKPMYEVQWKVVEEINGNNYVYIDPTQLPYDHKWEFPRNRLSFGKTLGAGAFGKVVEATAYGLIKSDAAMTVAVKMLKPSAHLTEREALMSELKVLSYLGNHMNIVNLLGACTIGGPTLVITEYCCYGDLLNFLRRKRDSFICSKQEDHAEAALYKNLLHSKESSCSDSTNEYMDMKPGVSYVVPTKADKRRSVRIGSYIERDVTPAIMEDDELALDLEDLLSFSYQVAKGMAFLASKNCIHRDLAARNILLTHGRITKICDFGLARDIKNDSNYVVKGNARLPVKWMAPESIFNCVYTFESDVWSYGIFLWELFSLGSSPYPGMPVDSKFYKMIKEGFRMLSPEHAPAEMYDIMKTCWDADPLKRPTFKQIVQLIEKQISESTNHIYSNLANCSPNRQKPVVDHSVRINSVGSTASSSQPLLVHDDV
From the text: as §1

Kdr = Kdr (Homo sapiens, UniProt P35968); assay: Kinase activity assay, Kdr; details: Table 1i; read-out: activity toward kinase Kdr, IC50
Kdr, sequence (P35968 20-1356): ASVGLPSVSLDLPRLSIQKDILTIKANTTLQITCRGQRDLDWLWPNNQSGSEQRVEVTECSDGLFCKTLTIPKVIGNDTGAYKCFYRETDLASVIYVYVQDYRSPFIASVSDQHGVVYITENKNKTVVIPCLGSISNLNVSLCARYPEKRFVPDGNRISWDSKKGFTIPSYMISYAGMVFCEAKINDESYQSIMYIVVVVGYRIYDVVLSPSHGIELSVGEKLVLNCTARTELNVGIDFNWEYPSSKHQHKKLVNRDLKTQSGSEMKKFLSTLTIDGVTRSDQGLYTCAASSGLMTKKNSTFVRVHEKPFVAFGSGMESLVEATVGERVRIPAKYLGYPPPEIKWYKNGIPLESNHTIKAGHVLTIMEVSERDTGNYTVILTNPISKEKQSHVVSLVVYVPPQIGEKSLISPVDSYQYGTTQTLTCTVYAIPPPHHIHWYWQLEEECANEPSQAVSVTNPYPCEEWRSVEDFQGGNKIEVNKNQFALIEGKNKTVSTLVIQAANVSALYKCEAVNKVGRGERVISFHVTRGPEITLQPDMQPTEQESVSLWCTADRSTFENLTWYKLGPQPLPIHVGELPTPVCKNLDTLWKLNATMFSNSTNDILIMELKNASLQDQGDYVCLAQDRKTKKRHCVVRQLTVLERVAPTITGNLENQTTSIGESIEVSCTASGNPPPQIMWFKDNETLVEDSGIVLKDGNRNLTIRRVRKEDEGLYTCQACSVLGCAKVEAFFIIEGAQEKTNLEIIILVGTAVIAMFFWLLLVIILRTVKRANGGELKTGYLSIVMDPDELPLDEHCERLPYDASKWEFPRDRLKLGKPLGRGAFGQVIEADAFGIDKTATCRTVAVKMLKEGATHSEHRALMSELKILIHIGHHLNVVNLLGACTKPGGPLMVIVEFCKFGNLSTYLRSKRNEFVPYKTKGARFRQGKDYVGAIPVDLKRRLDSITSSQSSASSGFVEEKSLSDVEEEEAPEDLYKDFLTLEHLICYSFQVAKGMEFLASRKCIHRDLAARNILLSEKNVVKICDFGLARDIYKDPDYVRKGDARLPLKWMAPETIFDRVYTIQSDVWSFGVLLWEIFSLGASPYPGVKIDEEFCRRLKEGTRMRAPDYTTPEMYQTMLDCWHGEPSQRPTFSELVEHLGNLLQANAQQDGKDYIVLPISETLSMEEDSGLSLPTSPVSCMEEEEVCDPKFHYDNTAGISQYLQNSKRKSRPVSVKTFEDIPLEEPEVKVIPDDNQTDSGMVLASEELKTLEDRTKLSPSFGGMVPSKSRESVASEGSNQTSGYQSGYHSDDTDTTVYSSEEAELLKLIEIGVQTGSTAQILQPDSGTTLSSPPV
From the text: as §1

TrkA = TrkA (Homo sapiens, UniProt P04629); assay: Kinase activity assay, TrkA; details: Table 1m; read-out: activity toward kinase TrkA, IC50
TrkA, sequence (P04629 33-796): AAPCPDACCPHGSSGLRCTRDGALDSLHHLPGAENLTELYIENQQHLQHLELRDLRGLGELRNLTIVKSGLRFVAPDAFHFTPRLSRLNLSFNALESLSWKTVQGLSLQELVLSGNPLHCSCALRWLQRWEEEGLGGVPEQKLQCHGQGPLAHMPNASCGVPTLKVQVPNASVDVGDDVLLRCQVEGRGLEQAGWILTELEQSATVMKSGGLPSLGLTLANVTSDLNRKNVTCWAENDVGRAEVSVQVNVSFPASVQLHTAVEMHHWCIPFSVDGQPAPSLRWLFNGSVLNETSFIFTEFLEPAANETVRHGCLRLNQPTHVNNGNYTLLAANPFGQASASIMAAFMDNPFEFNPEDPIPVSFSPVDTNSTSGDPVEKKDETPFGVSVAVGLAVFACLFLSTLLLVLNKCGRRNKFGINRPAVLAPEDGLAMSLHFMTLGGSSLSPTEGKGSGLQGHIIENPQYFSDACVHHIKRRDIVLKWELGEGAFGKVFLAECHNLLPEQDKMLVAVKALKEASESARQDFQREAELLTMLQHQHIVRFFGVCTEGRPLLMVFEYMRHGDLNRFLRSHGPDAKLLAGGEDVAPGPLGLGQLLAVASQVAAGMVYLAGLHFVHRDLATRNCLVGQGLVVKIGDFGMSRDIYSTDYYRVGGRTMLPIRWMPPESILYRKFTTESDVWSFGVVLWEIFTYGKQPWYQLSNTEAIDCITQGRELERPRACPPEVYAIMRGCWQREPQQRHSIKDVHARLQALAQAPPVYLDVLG
From the text: as §1

B-Raf V600E, sequence (P15056 whole entry V600E): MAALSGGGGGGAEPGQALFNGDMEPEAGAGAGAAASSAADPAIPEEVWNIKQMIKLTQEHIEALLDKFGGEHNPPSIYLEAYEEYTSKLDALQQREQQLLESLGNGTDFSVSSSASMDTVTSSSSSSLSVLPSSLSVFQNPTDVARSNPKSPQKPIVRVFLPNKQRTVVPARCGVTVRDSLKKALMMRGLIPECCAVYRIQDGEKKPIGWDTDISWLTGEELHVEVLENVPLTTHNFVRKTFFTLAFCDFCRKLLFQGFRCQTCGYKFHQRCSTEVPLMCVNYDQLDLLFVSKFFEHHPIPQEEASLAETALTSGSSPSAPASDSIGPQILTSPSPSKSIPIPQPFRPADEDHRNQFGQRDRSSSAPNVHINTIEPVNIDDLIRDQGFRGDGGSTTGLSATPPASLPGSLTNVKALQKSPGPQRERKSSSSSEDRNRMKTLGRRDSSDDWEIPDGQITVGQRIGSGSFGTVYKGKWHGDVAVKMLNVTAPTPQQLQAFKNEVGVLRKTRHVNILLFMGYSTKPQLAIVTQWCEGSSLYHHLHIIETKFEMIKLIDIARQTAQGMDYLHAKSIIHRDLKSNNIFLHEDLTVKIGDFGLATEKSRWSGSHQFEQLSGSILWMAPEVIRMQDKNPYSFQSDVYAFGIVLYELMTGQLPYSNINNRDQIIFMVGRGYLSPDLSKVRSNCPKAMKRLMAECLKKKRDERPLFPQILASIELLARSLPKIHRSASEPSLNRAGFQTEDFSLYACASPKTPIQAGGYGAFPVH

Row | Compound | IC50 (B-Raf V600E) | IC50 (Fms) | IC50 (Kit) | IC50 (Kdr) | IC50 (TrkA)
1 | Fc1nc(NCc2ccc(Cl)nc2)ccc1Cc1c[nH]c2ncncc12 [P-0045, (6-Chloro-pyridin-3-ylmethyl)-[6-fluoro-5-(7H-pyrrolo[2,3-d]pyrimidin-5-ylmethyl)-pyridin-2-yl]-amine] | ≤ 10 µM | ≤ 10 µM | ≤ 10 µM | ≤ 10 µM | 
2 | COc1cc(CNc2ccc(Cc3c[nH]c4ncncc34)c(F)n2)cc(OC)c1 [P-0065, (3,5-Dimethoxy-benzyl)-[6-fluoro-5-(7H-pyrrolo[2,3-d]pyrimidin-5-ylmethyl)-pyridin-2-yl]-amine] |  | ≤ 10 µM |  | ≤ 10 µM | ≤ 10 µM
3 | CCOc1ncccc1CNc1ccc(Cc2c[nH]c3ncncc23)c(F)n1 [P-0069, (2-Ethoxy-pyridin-3-ylmethyl)-[6-fluoro-5-(7H-pyrrolo[2,3-d]pyrimidin-5-ylmethyl)-pyridin-2-yl]-amine] |  | ≤ 10 µM | ≤ 10 µM | ≤ 10 µM | ≤ 10 µM
4 | Fc1nc(NCc2cccnc2C(F)(F)F)ccc1Cc1c[nH]c2ncncc12 [P-0071, [6-Fluoro-5-(7H-pyrrolo[2,3-d]pyrimidin-5-ylmethyl)-pyridin-2-yl]-(2-trifluoromethyl-pyridin-3-ylmethyl)-amine] |  | ≤ 10 µM |  | ≤ 10 µM | ≤ 10 µM
5 | Fc1cnc(Cl)cc1CNc1ccc(Cc2c[nH]c3ncncc23)c(F)n1 [P-0072, (2-Chloro-5-fluoro-pyridin-4-ylmethyl)-[6-fluoro-5-(7H-pyrrolo[2,3-d]pyrimidin-5-ylmethyl)-pyridin-2-yl]-amine] | ≤ 10 µM | ≤ 10 µM |  | ≤ 10 µM | 
6 | N#Cc1cc(CNc2ccc(Cc3c[nH]c4ncncc34)c(F)n2)ccn1 [P-0073, 4-{[6-Fluoro-5-(7H-pyrrolo[2,3-d]pyrimidin-5-ylmethyl)-pyridin-2-ylamino]-methyl}-pyridine-2-carbonitrile] | ≤ 10 µM | ≤ 10 µM |  | ≤ 10 µM | 
7 | Fc1nc(NCc2ccnc(C(F)(F)F)c2)ccc1Cc1c[nH]c2ncncc12 [P-0075, [6-Fluoro-5-(7H-pyrrolo[2,3-d]pyrimidin-5-ylmethyl)-pyridin-2-yl]-(2-trifluoromethyl-pyridin-4-ylmethyl)-amine] |  | ≤ 10 µM |  | ≤ 10 µM | ≤ 10 µM
8 | Fc1nc(NCc2ccnc(Cl)c2)ccc1Cc1c[nH]c2ncncc12 [P-0076, (2-Chloro-pyridin-4-ylmethyl)-[6-fluoro-5-(7H-pyrrolo[2,3-d]pyrimidin-5-ylmethyl)-pyridin-2-yl]-amine] | ≤ 10 µM | ≤ 10 µM |  | ≤ 10 µM | 
9 | Fc1ncc(Cl)cc1CNc1ccc(Cc2c[nH]c3ncncc23)c(F)n1 [P-0077, (5-Chloro-2-fluoro-pyridin-3-ylmethyl)-[6-fluoro-5-(7H-pyrrolo[2,3-d]pyrimidin-5-ylmethyl)-pyridin-2-yl]-amine] | ≤ 10 µM | ≤ 10 µM |  |  | 
10 | CCc1ncc(CNc2ccc(Cc3c[nH]c4ncncc34)c(F)n2)cn1 [P-0078, (2-Ethyl-pyrimidin-5-ylmethyl)-[6-fluoro-5-(7H-pyrrolo[2,3-d]pyrimidin-5-ylmethyl)-pyridin-2-yl]-amine] | ≤ 10 µM | ≤ 10 µM |  | ≤ 10 µM | 
11 | CCCCc1ncc(CNc2ccc(Cc3c[nH]c4ncncc34)c(F)n2)cn1 [P-0081, (2-Butyl-pyrimidin-5-ylmethyl)-[6-fluoro-5-(7H-pyrrolo[2,3-d]pyrimidin-5-ylmethyl)-pyridin-2-yl]-amine] | ≤ 10 µM | ≤ 10 µM |  | ≤ 10 µM | 
12 | COc1cc(CNc2ccc(Cc3c[nH]c4ncncc34)c(F)n2)cc(C(F)(F)F)c1 [P-0082, [6-Fluoro-5-(7H-pyrrolo[2,3-d]pyrimidin-5-ylmethyl)-pyridin-2-yl]-(3-methoxy-5-trifluoromethyl-benzyl)-amine] |  | ≤ 10 µM | ≤ 10 µM | ≤ 10 µM | ≤ 10 µM
13 | CCOc1ncccc1CNc1ncc(Cc2c[nH]c3ncncc23)cn1 [P-0085, (2-Ethoxy-pyridin-3-ylmethyl)-[5-(7H-pyrrolo[2,3-d]pyrimidin-5-ylmethyl)-pyrimidin-2-yl]-amine] |  | ≤ 10 µM | ≤ 10 µM | ≤ 10 µM | 
14 | c1cc(CNc2ncc(Cc3c[nH]c4ncncc34)cn2)cc(OC2CCCC2)n1 [P-0087, (2-Cyclopentyloxy-pyridin-4-ylmethyl)-[5-(7H-pyrrolo[2,3-d]pyrimidin-5-ylmethyl)-pyrimidin-2-yl]-amine] |  | ≤ 10 µM | ≤ 10 µM | ≤ 10 µM | 
15 | COc1ncc(F)cc1CNc1ccc(Cc2c[nH]c3ncnc(O)c23)cn1 [P-0099, 5-{6-[(5-Fluoro-2-methoxy-pyridin-3-ylmethyl)-amino]-pyridin-3-ylmethyl}-7H-pyrrolo[2,3-d]pyrimidin-4-ol] |  | ≤ 10 µM | ≤ 10 µM |  | ≤ 10 µM

The next lines start with the values.

Row | IC50 (B-Raf V600E) | IC50 (Fms) | IC50 (Kit) | IC50 (Kdr) | IC50 (TrkA) | Compound
16 | ≤ 10 µM | ≤ 10 µM | ≤ 10 µM | ≤ 10 µM |  | C[C@H](Nc1ccc(Cc2c[nH]c3ncncc23)c(F)n1)c1ccc(F)cc1 [P-0016, [(S)-1-(4-Fluoro-phenyl)-ethyl]-[6-fluoro-5-(7H-pyrrolo[2,3-d]pyrimidin-5-ylmethyl)-pyridin-2-yl]-amine]
17 | ≤ 10 µM | ≤ 10 µM |  | ≤ 10 µM |  | COc1cc(CNc2ccc(Cc3c[nH]c4ncncc34)c(F)n2)c(F)cn1 [P-0021, (5-Fluoro-2-methoxy-pyridin-4-ylmethyl)-[6-fluoro-5-(7H-pyrrolo[2,3-d]pyrimidin-5-ylmethyl)-pyridin-2-yl]-amine]
18 | ≤ 10 µM | ≤ 10 µM | ≤ 10 µM | ≤ 10 µM |  | COc1ncc(F)cc1CNc1ncc(Cc2c[nH]c3ncncc23)cn1 [P-0022, (5-Fluoro-2-methoxy-pyridin-3-ylmethyl)-[5-(7H-pyrrolo[2,3-d]pyrimidin-5-ylmethyl)-pyrimidin-2-yl]-amine]
19 |  | ≤ 10 µM | ≤ 10 µM | ≤ 10 µM | ≤ 10 µM | COc1ncc(CNc2ncc(Cc3c[nH]c4ncncc34)cn2)cc1F [P-0024, (5-Fluoro-6-methoxy-pyridin-3-ylmethyl)-[5-(7H-pyrrolo[2,3-d]pyrimidin-5-ylmethyl)-pyrimidin-2-yl]-amine]
20 | ≤ 10 µM | ≤ 10 µM |  | ≤ 10 µM |  | COc1cc(CNc2ccc(Cc3c[nH]c4ncncc34)c(F)n2)cc(OC)c1OC [P-0037, [6-Fluoro-5-(7H-pyrrolo[2,3-d]pyrimidin-5-ylmethyl)-pyridin-2-yl]-(3,4,5-trimethoxy-benzyl)-amine]
21 | ≤ 10 µM | ≤ 10 µM | ≤ 10 µM |  |  | COc1ccc(OC)c(CNc2ccc(Cc3c[nH]c4ncncc34)c(F)n2)c1 [P-0038, (2,5-Dimethoxy-benzyl)-[6-fluoro-5-(7H-pyrrolo[2,3-d]pyrimidin-5-ylmethyl)-pyridin-2-yl]-amine]
22 | ≤ 10 µM | ≤ 10 µM |  |  |  | COc1cncc(CNc2ccc(Cc3c[nH]c4ncncc34)c(F)n2)c1 [P-0040, [6-Fluoro-5-(7H-pyrrolo[2,3-d]pyrimidin-5-ylmethyl)-pyridin-2-yl]-(5-methoxy-pyridin-3-ylmethyl)-amine]
23 | ≤ 10 µM | ≤ 10 µM |  |  |  | Fc1cncc(CNc2ccc(Cc3c[nH]c4ncncc34)c(F)n2)c1 [P-0050, (5-Fluoro-pyridin-3-ylmethyl)-[6-fluoro-5-(7H-pyrrolo[2,3-d]pyrimidin-5-ylmethyl)-pyridin-2-yl]-amine]
24 | ≤ 10 µM | ≤ 10 µM | ≤ 10 µM | ≤ 10 µM |  | Fc1nc(NCc2ccc(Br)cn2)ccc1Cc1c[nH]c2ncncc12 [P-0053, (5-Bromo-pyridin-2-ylmethyl)-[6-fluoro-5-(7H-pyrrolo[2,3-d]pyrimidin-5-ylmethyl)-pyridin-2-yl]-amine]
25 |  | ≤ 10 µM | ≤ 10 µM | ≤ 10 µM | ≤ 10 µM | Fc1nc(NCc2cc(C(F)(F)F)cc(C(F)(F)F)c2)ccc1Cc1c[nH]c2ncncc12 [P-0054, (3,5-Bis-trifluoromethyl-benzyl)-[6-fluoro-5-(7H-pyrrolo[2,3-d]pyrimidin-5-ylmethyl)-pyridin-2-yl]-amine]
26 | ≤ 10 µM | ≤ 10 µM |  | ≤ 10 µM |  | CS(=O)(=O)c1cc(Cl)ccc1CNc1ccc(Cc2c[nH]c3ncncc23)c(F)n1 [P-0060, (4-Chloro-2-methanesulfonyl-benzyl)-[6-fluoro-5-(7H-pyrrolo[2,3-d]pyrimidin-5-ylmethyl)-pyridin-2-yl]-amine]
27 |  | ≤ 10 µM | ≤ 10 µM | ≤ 10 µM | ≤ 10 µM | CN(C)c1ccccc1CNc1ccc(Cc2c[nH]c3ncncc23)c(F)n1 [P-0061, (2-Dimethylamino-benzyl)-[6-fluoro-5-(7H-pyrrolo[2,3-d]pyrimidin-5-ylmethyl)-pyridin-2-yl]-amine]
28 | ≤ 10 µM | ≤ 10 µM | ≤ 10 µM | ≤ 10 µM |  | Cc1ccc(CNc2ccc(Cc3c[nH]c4ncncc34)c(F)n2)nc1 [P-0062, [6-Fluoro-5-(7H-pyrrolo[2,3-d]pyrimidin-5-ylmethyl)-pyridin-2-yl]-(5-methyl-pyridin-2-ylmethyl)-amine]
29 |  | ≤ 10 µM | ≤ 10 µM | ≤ 10 µM | ≤ 10 µM | Cc1cc(F)cc(CNc2ccc(Cc3c[nH]c4ncncc34)c(F)n2)c1 [P-0064, (3-Fluoro-5-methyl-benzyl)-[6-fluoro-5-(7H-pyrrolo[2,3-d]pyrimidin-5-ylmethyl)-pyridin-2-yl]-amine]
